Laboratory results as given in patent US12077503B2, “Substituted cyclic amides and their use as herbicides” (FMC CORPORATION, priority 2015, dated 2024).

Columns and labels:
Format in all cases: in vivo
Kochia (Kochia scoparia) [1] = test: Test A preemergence
Text: (§1) Seeds of plant species selected from barnyardgrass (Echinochloa crus-galli), Kochia (Kochia scoparia), ragweed (common ragweed, Ambrosia elatior), ryegrass, Italian (Italian ryegrass, Lolium multiflorum), crabgrass, large (Digitaria sanguinalis), giant foxtail (Setaria faberii), green foxtail (Setaria viridis), morningglory (Ipomoea spp.), pigweed (Amaranthus retroflexus), velvetleaf (Abutilon theophrasti), wheat (Triticum aestivum), and corn (Zea mays) were planted into a blend of loam soil and sand and treated preemergence with a directed soil spray using test chemicals formulated in anon-phytotoxic solvent mixture which included a surfactant.
(§2) At the same time, plants selected from these crop and weed species and also blackgrass (Alopecurus myosuroides), and Galium (catchweed bedstraw, Galium aparine) were planted in pots containing the same blend of loam soil and sand and treated with postemergence applications of test chemicals formulated in the same manner. Plants ranged in height from 2 to 10 cm and were in the one- to two-leaf stage for the postemergence treatment. Treated plants and untreated controls were maintained in a greenhouse for approximately 10 d, after which time all treated plants were compared to untreated controls and visually evaluated for injury. Plant response ratings, summarized in Table A, are based on a 0 to 100 scale where 0 is no effect and 100 is complete control. A dash (-) response means no test result.

[2] = test system: barnyardgrass (Echinochloa crus-galli); test: Test A preemergence
Text: as §1, §2

[3] = test system: giant foxtail (Setaria faberii); test: Test A preemergence
Text: as §1, §2

[4] = test system: pigweed (Amaranthus retroflexus); test: Test A preemergence
Text: as §1, §2

[5] = test system: ragweed (common ragweed, Ambrosia elatior); test: Test A preemergence
Text: as §1, §2

[6] = test system: ryegrass, Italian (Italian ryegrass, Lolium multiflorum); test: Test A preemergence
Text: as §1, §2

[7] = test system: Galium (catchweed bedstraw, Galium aparine); test: Test A postemergence; conditions: postemergence
Text: as §1, §2

Kochia (Kochia scoparia) [8] = test: Test A postemergence; conditions: postemergence
Text: as §1, §2

[9] = test system: barnyardgrass (Echinochloa crus-galli); test: Test A postemergence; conditions: postemergence
Text: as §1, §2

[10] = test system: blackgrass (Alopecurus myosuroides); test: Test A postemergence; conditions: postemergence
Text: as §1, §2

corn (Zea mays) [11] = test: Test A postemergence; conditions: postemergence
Text: as §1, §2

[12] = test system: giant foxtail (Setaria faberii); test: Test A postemergence; conditions: postemergence
Text: as §1, §2

[13] = test system: pigweed (Amaranthus retroflexus); test: Test A postemergence; conditions: postemergence
Text: as §1, §2

[14] = test system: ragweed (common ragweed, Ambrosia elatior); test: Test A postemergence; conditions: postemergence
Text: as §1, §2

[15] = test system: ryegrass, Italian (Italian ryegrass, Lolium multiflorum); test: Test A postemergence; conditions: postemergence
Text: as §1, §2

[16] = test system: wheat (Triticum aestivum); test: Test A postemergence; conditions: postemergence
Text: as §1, §2

[17] = test system: barnyardgrass (Echinochloa crus-galli); test: Test B flooded paddy test; conditions: Flood, 250 g ai/ha; 0 to 100 scale where 0 is no effect and 100 is complete control; 13 to 15 d
Description: (§3) Plant species in the flooded paddy test selected from rice (Oryra sativa), sedge, umbrella (small-flower umbrella sedge, Cyperus difformis), ducksalad (Heteranthera limosa), and barnyardgrass (Echinochloa crus-galli) were grown to the 2-leaf stage for testing. At time of treatment, test pots were flooded to 3 cm above the soil surface, treated by application of test compounds directly to the paddy water, and then maintained at that water depth for the duration of the test. Treated plants and controls were maintained in a greenhouse for 13 to 15 d, after which time all species were compared to controls and visually evaluated. Plant response ratings, summarized in Table B, are based on a scale of 0 to 100 where 0 is no effect and 100 is complete control. A dash (-) response means no test result.

[18] = test system: ducksalad (Heteranthera limosa); test: Test B flooded paddy test; conditions: Flood, 250 g ai/ha; 0 to 100 scale where 0 is no effect and 100 is complete control; 13 to 15 d
Description: as §3

rice (Oryra sativa) = test: Test B flooded paddy test; conditions: Flood, 250 g ai/ha; 0 to 100 scale where 0 is no effect and 100 is complete control; 13 to 15 d
Description: as §3

[19] = test system: sedge, umbrella (small-flower umbrella sedge, Cyperus difformis); test: Test B flooded paddy test; conditions: Flood, 250 g ai/ha; 0 to 100 scale where 0 is no effect and 100 is complete control; 13 to 15 d
Description: as §3

[20] = test system: barnyardgrass (Echinochloa crus-galli); test: Test G Pre-Emergence Protocol; conditions: evaluated after 13 days
Description: (§4) Seeds of corn (Zea mays), giant foxtail (Setaria faberi), barnyardgrass (Echinochloa crus-galli), ivy-leaved morning glory (Ipomoea hederacea), redroot pigweed (Amaranthus retroflexus) and velvetleaf (Abutilon theophrasti) were sown in standard soil in pots. After cultivation for one day under controlled conditions in a glasshouse (at 24/16° C., day/night; 14 hours light; 65% humidity), the plants were sprayed with an aqueous spray solution derived from the formulation of the technical active ingredient in acetone/water (50:50) solution containing 0.5% Tween 20 (polyoxyethylene sorbitan monolaurate, CAS RN 9005-64-5) to give a final dose of 15.625, 62.5 or 250 g/ha of test compound.
(§5) The test plants were then grown on under controlled conditions in a glasshouse (at 24/16° C., day/night; 14 hours light; 65% humidity) and watered twice daily. After 13 days the test was evaluated (100=total damage to plant; 0=no damage to plant). A dash (-) means no test result.

corn (Zea mays) [21] = test: Test G Pre-Emergence Protocol; conditions: evaluated after 13 days
Description: as §4, §5

[22] = test system: giant foxtail (Setaria faberi); test: Test G Pre-Emergence Protocol; conditions: evaluated after 13 days
Description: as §4, §5

[23] = test system: ivy-leaved morning glory (Ipomoea hederacea); test: Test G Pre-Emergence Protocol; conditions: evaluated after 13 days
Description: as §4, §5

[24] = test system: redroot pigweed (Amaranthus retroflexus); test: Test G Pre-Emergence Protocol; conditions: evaluated after 13 days
Description: as §4, §5

[25] = test system: velvetleaf (Abutilon theophrasti); test: Test G Pre-Emergence Protocol; conditions: evaluated after 13 days
Description: as §4, §5

[26] = test system: barnyardgrass (Echinochloa crus-galli); test: Test G Post-Emergence Protocol
Description: as §4, with “8 days” for “one day”
as §5

corn (Zea mays) [27] = test: Test G Post-Emergence Protocol
Description: as §4, with “8 days” for “one day”
as §5

[28] = test system: giant foxtail (Setaria faberi); test: Test G Post-Emergence Protocol
Description: as §4, with “8 days” for “one day”
as §5

[29] = test system: ivy-leaved morning glory (Ipomoea hederacea); test: Test G Post-Emergence Protocol
Description: as §4, with “8 days” for “one day”
as §5

[30] = test system: redroot pigweed (Amaranthus retroflexus); test: Test G Post-Emergence Protocol
Description: as §4, with “8 days” for “one day”
as §5

[31] = test system: velvetleaf (Abutilon theophrasti); test: Test G Post-Emergence Protocol
Description: as §4, with “8 days” for “one day”
as §5

[32] = 125 g ai/ha, preemergence, 0 to 100 scale (0 no effect, 100 complete control)
[33] = Preemergence, 500 g ai/ha, visual injury approx. 10 d
[34] = 125 g ai/ha, visual injury rating on 0 to 100 scale (0 no effect, 100 complete control), approx. 10 d
[35] = 500 g ai/ha, 0 to 100 scale, 0 no effect, 100 complete control
[36] = 62.5 g ai/ha, 100=total damage to plant, 0=no damage to plant
[37] = 15.625 g ai/ha, evaluated after 13 days (100=total damage to plant; 0=no damage to plant)
[38] = 62.5 g ai/ha, evaluated after 13 days, 100=total damage to plant, 0=no damage to plant
[39] = 250 g ai/ha, evaluated after 13 days, 100=total damage to plant, 0=no damage to plant

Cc1cc(C2CN(C)C(=O)C2C(=O)Nc2ccccc2C(F)(F)F)ccc1F (stereo not drawn) [Compound 406]
70: Plant response rating, Corn (corn (Zea mays) [11]; [35]) | Plant response rating, Wheat [16, 35] | Plant response rating, Barnyardgrass [17]
90: Plant response rating, Barnyardgrass [2, 32] | Barnyardgrass plant response rating (0 to 100 scale, 0 is no effect, 100 is complete control) [2, 33] | Plant response rating, Foxtail, Giant [3, 32] | Foxtail, Giant plant response rating (0 to 100 scale, 0 is no effect, 100 is complete control) [3, 33] | Barnyardgrass plant response rating [9, 34] | Plant response rating, Barnyardgrass [9, 35]
30: Blackgrass plant response rating [10, 34] | Plant response rating, Pigweed [13, 35] | Ryegrass, Italian plant response rating [15, 34]
80: Foxtail, Giant plant response rating [12, 34] | Plant response rating, Foxtail, Giant [12, 35] | Plant response rating, Ducksalad [18]
40: Kochia plant response rating (0 to 100 scale, 0 is no effect, 100 is complete control) (Kochia (Kochia scoparia) [1]; [33]) | Ragweed plant response rating (0 to 100 scale, 0 is no effect, 100 is complete control) [5, 33] | Kochia plant response rating (Kochia (Kochia scoparia) [8]; [34]) | Plant response rating, Ryegrass, Italian [15, 35] | Wheat plant response rating [16, 34]
50: Pigweed plant response rating (0 to 100 scale, 0 is no effect, 100 is complete control) [4, 33] | Ryegrass, Italian plant response rating (0 to 100 scale, 0 is no effect, 100 is complete control) [6, 33] | Galium plant response rating [7, 34] | Plant response rating, Galium [7, 35] | Plant response rating, Kochia (Kochia (Kochia scoparia) [8]; [35]) | Plant response rating, Blackgrass [10, 35]
0: Plant response rating, Kochia (Kochia (Kochia scoparia) [1]; [32]) | Plant response rating, Ragweed [5, 32] | Plant response rating, Rice (rice (Oryra sativa)) | Plant response rating, Sedge, Umbrella [19]
20: Plant response rating, Pigweed [4, 32] | Plant response rating, Ryegrass, Italian [6, 32] | Corn plant response rating (corn (Zea mays) [11]; [34]) | Pigweed plant response rating [13, 34] | Ragweed plant response rating [14, 34] | Plant response rating, Ragweed [14, 35]

CN1C[C@@H](c2ccc(C(F)(F)F)cc2)[C@H](C(=O)Nc2cccnc2F)C1=O [Compound 1768]
0: Barnyardgrass damage rating (100=total damage to plant; 0=no damage to plant) ([20]; 15.625 g ai/ha) | Barnyardgrass damage rating [20, 36] | Barnyardgrass damage rating (100=total damage to plant; 0=no damage to plant) ([20]; 250 g ai/ha) | Corn damage rating (100=total damage to plant; 0=no damage to plant) (corn (Zea mays) [21]; 15.625 g ai/ha) | Corn damage rating (corn (Zea mays) [21]; [36]) | Corn damage rating (100=total damage to plant; 0=no damage to plant) (corn (Zea mays) [21]; 250 g ai/ha) | Foxtail, Giant damage rating (100=total damage to plant; 0=no damage to plant) ([22]; 15.625 g ai/ha) | Foxtail, Giant damage rating [22, 36] | Foxtail, Giant damage rating (100=total damage to plant; 0=no damage to plant) ([22]; 250 g ai/ha) | Morningglory, Ivy-leaved damage rating (100=total damage to plant; 0=no damage to plant) ([23]; 15.625 g ai/ha) | Morningglory, Ivy-leaved damage rating [23, 36] | Morningglory, Ivy-leaved damage rating (100=total damage to plant; 0=no damage to plant) ([23]; 250 g ai/ha) | Pigweed, Redroot damage rating (100=total damage to plant; 0=no damage to plant) ([24]; 15.625 g ai/ha) | Pigweed, Redroot damage rating [24, 36] | Pigweed, Redroot damage rating (100=total damage to plant; 0=no damage to plant) ([24]; 250 g ai/ha) | Velvetleaf damage rating (100=total damage to plant; 0=no damage to plant) ([25]; 15.625 g ai/ha) | Velvetleaf damage rating [25, 36] | Velvetleaf damage rating (100=total damage to plant; 0=no damage to plant) ([25]; 250 g ai/ha) | Barnyardgrass damage rating [26, 37] | Barnyardgrass damage rating [26, 38] | Barnyardgrass damage rating [26, 39] | Corn damage rating (corn (Zea mays) [27]; [37]) | Corn damage rating (corn (Zea mays) [27]; [38]) | Corn damage rating (corn (Zea mays) [27]; [39]) | Foxtail, Giant damage rating [28, 37] | Foxtail, Giant damage rating [28, 38] | Foxtail, Giant damage rating [28, 39] | Morningglory, Ivy-leaved damage rating [29, 37] | Morningglory, Ivy-leaved damage rating [29, 38] | Morningglory, Ivy-leaved damage rating [29, 39] | Pigweed, Redroot damage rating [30, 37] | Pigweed, Redroot damage rating [30, 38] | Pigweed, Redroot damage rating [30, 39] | Velvetleaf damage rating [31, 37] | Velvetleaf damage rating [31, 38] | Velvetleaf damage rating [31, 39]
